# In patent US10668059B2, “Compositions and methods for the prevention and treatment of mast cell-induced vascular leakage” (Duke University, priority 2012, dated 2020):
# Assays:
# DENV [1] = test: Evans Blue perfusion model of DENV-induced vascular leakage in WT mice; type: in vivo; conditions: i.p. 1×10^6 pfu DENV, 1 day after infection, versus uninfected baseline
# Experimental: Uninfected mice, or mice infected with 1×10^6 pfu of DENV were injected with 100 μL of 5% Evans Blue dye 30 minutes prior to euthanasia. […] This contrast is particularly striking in the liver, a Dengue-target organ.
# (§1) Serum was obtained from uninfected mice, DENV-infected and untreated mice, and mice that received MC-stabilizing or MC-product targeting treatments 24 hr after infection. Error bars represent the SEM of values obtained from individual animals n≥3.
# As expected, Sash mice, which are MC-deficient model (see, e.g., Grimbaldestron, M. A. et al. (2005) Am. J. Pathol. 167:835-848), have undetectable serum levels of MCPT1 as baseline, as do uninfected congenic wild-type (WT) controls (FIG. 2A). To examine vascular leakage, mice infected with DENV were injected by tail vein with the tracking dye, Evans Blue, 30 minutes prior to euthanasia at a 24 hr time point.
# Using this Evans Blue perfusion model, the extent of vascular leakage induced in 24 hr after i.p. instillation of 1×10^6 plaque-forming units (pfu) of DENV in WT and Sash mice was determined. […]
# Due to the contributions of MCs to many pathological inflammatory disorders, there are a number of available drugs that target MCs or products that they produce after activation. […] Drugs were administered once, 30 minutes after i.p. instillation of 1×106 DENV and vascular leakage assessed 1 day after infection.
# DENV [2] = test: Hematocrit analysis in DENV-infected WT mice; type: in vivo; conditions: i.p. 1×10^6 pfu DENV, 1 day after infection, versus uninfected baseline
# Experimental: as §1
# To support the observation of increased dye leakage, hematocrit analysis was also performed using blood samples from mice. This test is one that is used in some cases to diagnose DENV pathology clinically by measuring the packed red blood cell volume from the blood and, therefore, it is a measure of plasma loss (see, e.g., Special Programme for Research and Training in Tropical Diseases, WHO Dengue: guidelines for diagnosis, treatment, prevention, and control. (2009) New ed. Geneva:TDR:World Health Organization). […] These findings cumulatively point to a pivotal role for MCs in promoting DENV-induced increased in vascular permeability.
# Due to the contributions of MCs to many pathological inflammatory disorders, there are a number of available drugs that target MCs or products that they produce after activation. […] This hypothesis was tested by blocking DENV induced vascular leakage using a panel of such drugs. […] Drugs were administered once, 30 minutes after i.p. instillation of 1×106 DENV and vascular leakage assessed 1 day after infection.
smiles,measurement,setting,value
CN1CCC(=C2c3ccccc3CC(=O)c3sccc32)CC1 [ketotifen],levels of tissue dye detection compared to baseline levels,DENV [1],not statistically different from baseline levels
same,hematocrit values compared to baseline levels,DENV [2],not statistically different from baseline levels
